Assay results reported in PMC7154858, “Transcriptional and Biochemical Characterization of Cytosolic Pyruvate Kinases in Arabidopsis thaliana” (Plants, 2020).
Each block holds one compound with its values, some of them ahead of it.

Experiments:
Experiment in all cases: LDH-coupled assay, single effector concentration
Format in all cases: biochemical
cPK2 [1] = target: T1, cPK2 (Arabidopsis thaliana, UniProt Q9FM97); details: 2000 µM; saturating ADP and PEP; 10 mM MgCl2, pH 7.5, 25 °C; inhibitor (also reaction product)
T1 construct: gene MCD7.8; full-length cDNA in pET16b, N-terminal His tag (6x in Results, 5x in Methods), E. coli BLR21, Ni-NTA; primer begins MAMIEQ
T1 sequence (Q9FM97 1-498): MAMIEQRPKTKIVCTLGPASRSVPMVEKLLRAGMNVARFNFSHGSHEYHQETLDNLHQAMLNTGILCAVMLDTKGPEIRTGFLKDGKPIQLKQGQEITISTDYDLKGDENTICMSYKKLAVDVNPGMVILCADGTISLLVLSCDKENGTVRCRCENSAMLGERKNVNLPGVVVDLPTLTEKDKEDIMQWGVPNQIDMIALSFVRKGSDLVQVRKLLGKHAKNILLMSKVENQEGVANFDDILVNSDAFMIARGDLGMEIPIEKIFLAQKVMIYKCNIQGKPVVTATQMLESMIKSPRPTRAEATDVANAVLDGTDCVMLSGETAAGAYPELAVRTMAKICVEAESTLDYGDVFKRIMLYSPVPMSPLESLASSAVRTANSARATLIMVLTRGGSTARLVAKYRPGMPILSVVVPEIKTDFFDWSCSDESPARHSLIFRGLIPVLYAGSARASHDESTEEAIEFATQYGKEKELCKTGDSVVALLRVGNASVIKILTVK

cPK3 [2] = target: T2, cPK3 (Arabidopsis thaliana, UniProt Q9FFP6); details: 2000 µM; saturating ADP and PEP; 10 mM MgCl2, pH 7.5, 25 °C; inhibitor (also reaction product)
T2 construct: gene MBK5.16; printed locus At5g56350 duplicates cPK2 (apparent misprint); primer begins MSNIDIE, unlike cPK2; full-length cDNA in pET16b, N-terminal His tag (6x/5x), E. coli BLR21, Ni-NTA
T2 sequence (Q9FFP6 1-510): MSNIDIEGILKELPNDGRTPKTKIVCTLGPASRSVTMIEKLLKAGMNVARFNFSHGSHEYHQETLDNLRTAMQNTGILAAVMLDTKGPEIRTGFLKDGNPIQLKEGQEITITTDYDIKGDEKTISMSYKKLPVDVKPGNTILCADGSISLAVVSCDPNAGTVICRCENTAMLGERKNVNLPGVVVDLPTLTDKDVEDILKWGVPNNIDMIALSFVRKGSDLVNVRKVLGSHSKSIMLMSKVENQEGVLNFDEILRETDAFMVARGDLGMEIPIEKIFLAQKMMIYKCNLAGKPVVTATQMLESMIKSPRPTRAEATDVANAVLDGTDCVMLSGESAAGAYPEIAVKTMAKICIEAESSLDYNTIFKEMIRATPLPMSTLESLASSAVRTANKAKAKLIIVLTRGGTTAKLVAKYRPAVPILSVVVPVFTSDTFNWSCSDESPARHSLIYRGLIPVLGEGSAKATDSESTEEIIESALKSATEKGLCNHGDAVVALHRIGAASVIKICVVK

cPK1 [3] = target: T3, cPK1 (Arabidopsis thaliana, UniProt Q9FNN1); details: 2000 µM; saturating ADP and PEP; 10 mM MgCl2, pH 7.5, 25 °C; inhibitor (also reaction product)
T3 construct: gene MAH20.13; full-length cDNA in pET16b, N-terminal His tag (6x in Results, 5x in Methods), E. coli BLR21, Ni-NTA; primer begins MSNIDIEG
T3 sequence (Q9FNN1 1-510): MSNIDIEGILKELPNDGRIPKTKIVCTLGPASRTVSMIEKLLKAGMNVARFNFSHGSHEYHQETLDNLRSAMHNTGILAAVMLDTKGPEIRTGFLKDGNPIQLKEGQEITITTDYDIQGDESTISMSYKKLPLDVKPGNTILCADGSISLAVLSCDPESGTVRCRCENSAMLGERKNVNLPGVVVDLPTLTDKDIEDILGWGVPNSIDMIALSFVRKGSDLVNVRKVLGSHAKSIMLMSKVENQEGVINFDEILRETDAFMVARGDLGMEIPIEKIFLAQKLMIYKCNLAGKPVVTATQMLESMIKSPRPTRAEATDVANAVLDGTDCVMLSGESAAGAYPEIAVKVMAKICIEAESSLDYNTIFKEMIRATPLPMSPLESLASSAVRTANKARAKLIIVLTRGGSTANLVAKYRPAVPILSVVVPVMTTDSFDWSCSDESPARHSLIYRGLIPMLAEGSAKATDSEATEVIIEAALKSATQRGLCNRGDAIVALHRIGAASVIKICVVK

cPK1 [4] = target: T3, cPK1; details: 4000 µM; saturating ADP and PEP; 10 mM MgCl2, pH 7.5, 25 °C; allosteric inhibitor (stated)
cPK4 = target: T4, cPK4 (Arabidopsis thaliana, UniProt Q9SJQ0); details: 4000 µM; saturating ADP and PEP; 10 mM MgCl2, pH 7.5, 25 °C; allosteric inhibitor (stated)
T4 construct: gene At2g36580; full-length cDNA in pET16b, N-terminal His tag (6x in Results, 5x in Methods), E. coli BLR21, Ni-NTA; primer begins MHSSHL
T4 sequence (Q9SJQ0 1-527): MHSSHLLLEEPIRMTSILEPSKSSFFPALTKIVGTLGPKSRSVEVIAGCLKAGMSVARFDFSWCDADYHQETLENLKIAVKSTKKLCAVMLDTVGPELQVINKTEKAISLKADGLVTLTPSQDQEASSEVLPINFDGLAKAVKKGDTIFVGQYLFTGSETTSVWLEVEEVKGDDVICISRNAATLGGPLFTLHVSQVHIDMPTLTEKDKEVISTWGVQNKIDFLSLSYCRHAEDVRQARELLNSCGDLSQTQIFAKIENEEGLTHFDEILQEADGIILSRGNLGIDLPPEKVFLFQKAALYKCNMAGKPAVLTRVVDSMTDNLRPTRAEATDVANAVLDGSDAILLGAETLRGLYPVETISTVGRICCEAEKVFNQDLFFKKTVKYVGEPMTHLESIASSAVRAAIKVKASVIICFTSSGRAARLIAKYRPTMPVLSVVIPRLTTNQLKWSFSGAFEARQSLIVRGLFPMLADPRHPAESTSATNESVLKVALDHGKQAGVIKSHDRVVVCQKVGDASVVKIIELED

cPK2 [5] = target: T1, cPK2; details: 4000 µM; saturating ADP and PEP; 10 mM MgCl2, pH 7.5, 25 °C; allosteric inhibitor (stated)
cPK3 [6] = target: T2, cPK3; details: 4000 µM; saturating ADP and PEP; 10 mM MgCl2, pH 7.5, 25 °C; allosteric inhibitor (stated)
cPK5 = target: T5, cPK5 (Arabidopsis thaliana, UniProt F4J867); details: 4000 µM; saturating ADP and PEP; 10 mM MgCl2, pH 7.5, 25 °C; allosteric inhibitor (stated)
T5 construct: gene At3g52990; full-length cDNA in pET16b, N-terminal His tag (6x in Results, 5x in Methods), E. coli BLR21, Ni-NTA; primer begins MHSSHL
T5 sequence (F4J867 1-527): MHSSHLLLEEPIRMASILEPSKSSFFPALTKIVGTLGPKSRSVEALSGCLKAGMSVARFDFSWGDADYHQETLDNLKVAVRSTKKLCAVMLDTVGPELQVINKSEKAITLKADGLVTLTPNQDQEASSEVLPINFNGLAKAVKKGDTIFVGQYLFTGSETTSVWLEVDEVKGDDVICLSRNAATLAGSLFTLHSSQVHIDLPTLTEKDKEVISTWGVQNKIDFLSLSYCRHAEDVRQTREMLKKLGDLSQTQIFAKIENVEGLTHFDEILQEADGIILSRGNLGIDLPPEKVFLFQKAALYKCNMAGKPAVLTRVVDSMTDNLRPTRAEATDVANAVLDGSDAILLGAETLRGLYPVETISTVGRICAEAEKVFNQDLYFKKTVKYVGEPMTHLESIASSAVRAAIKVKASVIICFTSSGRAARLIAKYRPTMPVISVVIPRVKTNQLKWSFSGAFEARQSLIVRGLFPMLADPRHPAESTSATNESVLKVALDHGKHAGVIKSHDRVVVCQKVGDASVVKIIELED

cPK1 [7] = target: T3, cPK1; details: 200 µM; saturating ADP and PEP; 10 mM MgCl2, pH 7.5, 25 °C; inhibitor
cPK1 [8] = target: T3, cPK1; details: 1000 µM; saturating ADP and PEP; 10 mM MgCl2, pH 7.5, 25 °C; activator

- ATP (cPK2 [1]): 76%
- ATP (cPK3 [2]): 27%
- ATP (cPK1 [3]): 7%
Structure (SMILES): Nc1ncnc2c1ncn2[C@@H]1O[C@H](COP(=O)(O)OP(=O)(O)OP(=O)(O)O)[C@@H](O)[C@H]1O [ATP]

- Citrate (cPK1 [4]): 17%
- Citrate (cPK4): 3%
- Citrate (cPK2 [5]): 26%
- Citrate (cPK3 [6]): 7%
- Citrate (cPK5): 2%
Structure (SMILES): O=C(O)CC(O)(CC(=O)O)C(=O)O [citrate]

- Aspartate (cPK1 [7]): 69%
Structure (SMILES): N[C@@H](CC(=O)O)C(=O)O [aspartate]

- F1.6BP (cPK1 [8]): 122%
Structure (SMILES): O=P(O)(O)OC[C@H]1OC(O)(COP(=O)(O)O)[C@@H](O)[C@@H]1O (stereo partly shown) [F1.6BP]
